In patent US20240287138A1, “CYCLIC PEPTIDES FOR INHIBITING TNF RECEPTOR 1 ACTIVITY” (Merck Sharp & Dohme LLC, priority 2023, published 2024):
pIC50, pKd: −log10 of the molar value. Read-outs that look alike come from different tables or passages of the source. Numbered stars: 1 amine (or outer) side, 2 acyl side, 3 side chain; on linkers, the order of the positions; unused ones are H or OH. Bridge positions count the residues as written; N and C are the ends. Square brackets hold non-standard residues; d marks the D form. Peptide text beside a SMILES is read from it. Trp(βS-Me,7-OMe) = COc1cccc2c([C@H](C)[C@H](N)C(=O)O)c[nH]c12; Trp(7-CN) = N#Cc1cccc2c(C[C@H](N)C(=O)O)c[nH]c12; Trp(7-Cl) = N[C@@H](Cc1c[nH]c2c(Cl)cccc12)C(=O)O; Phe(3-CONH2) = NC(=O)c1cccc(C[C@H](N)C(=O)O)c1; Phe(4-CONH2) = NC(=O)c1ccc(C[C@H](N)C(=O)O)cc1; Phe(4-COOH) = N[C@@H](Cc1ccc(C(=O)O)cc1)C(=O)O; Trp(7-aza) = N[C@@H](Cc1c[nH]c2ncccc12)C(=O)O; Phe(4-CH2NH2) = NCc1ccc(C[C@H](N)C(=O)O)cc1; X23 = N[C@@H]1CCN([*:1])[C@H](C(=O)[*:2])C1; Pip(5R-OH) = O=C(O)[C@@H]1CC[C@@H](O)CN1; X1 = O=C([C@@H]1CC[C@H](N[*:1])C1)[*:2]; Nle(5,5-F2) = CC(F)(F)CC[C@H](N)C(=O)O; Pip(4-aza) = O=C(O)[C@@H]1CNCCN1; 4Pal = N[C@@H](Cc1ccncc1)C(=O)O; NMeE = CN[C@@H](CCC(=O)O)C(=O)O; dHyp = O=C(O)[C@H]1C[C@H](O)CN1; Pip = O=C(O)[C@@H]1CCCCN1; αMeS = C[C@](N)(CO)C(=O)O; Nle = CCCC[C@H](N)C(=O)O; Sar = CNCC(=O)O

Tests used:
[1] = biological target: T1, human TNFR1 extracellular domain (ECD) protein (Homo sapiens, UniProt P19438); assay: SPR binding affinity to captured human TNFR1 ECD
T1 construct: HRV 3C protease cleavage site (C); 6His (C, cleaved yes); made in house; host or cells: Sf21 insect cells (baculovirus), secreted
T1 sequence (P19438 30-211): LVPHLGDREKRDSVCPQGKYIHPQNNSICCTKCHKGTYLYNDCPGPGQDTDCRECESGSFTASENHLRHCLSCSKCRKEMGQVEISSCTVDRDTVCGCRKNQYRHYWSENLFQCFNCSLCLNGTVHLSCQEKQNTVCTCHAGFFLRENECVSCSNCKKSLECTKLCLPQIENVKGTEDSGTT
How it was run: (§1)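 Peptides are tested against captured biotin-tagged human TNFR1 ECD, with parallel TNFR2 ECD binding to check selectivity. Buffer: 10 mM HEPES pH 7.4, 150 mM NaCl, 3 mM EDTA, 0.05% P20, 2% DMSO.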

[2] = biological target: T2, human TNFR2 ECD protein (Homo sapiens, UniProt P20333); assay: SPR off-target binding (selectivity) to human TNFR2 ECD
T2 construct: HRV 3C protease cleavage site (C); 6His (C, cleaved yes); made in house; host or cells: Sf21 insect cells (baculovirus), secreted
T2 sequence (P20333 23-257): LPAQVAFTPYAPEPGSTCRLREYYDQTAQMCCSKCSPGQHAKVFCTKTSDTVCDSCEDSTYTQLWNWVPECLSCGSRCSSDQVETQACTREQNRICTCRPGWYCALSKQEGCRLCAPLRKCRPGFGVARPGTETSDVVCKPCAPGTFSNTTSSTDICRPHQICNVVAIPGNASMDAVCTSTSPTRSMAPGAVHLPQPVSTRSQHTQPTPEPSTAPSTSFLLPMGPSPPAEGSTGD
How it was run: as §1

[3] = biological target: T3, TNFα-induced NF-κB signal transduction pathway (TNFR1 signaling) in THP-1 cells (Homo sapiens, UniProt P19438); assay: THP-1 Lucia NF-κB reporter cell assay, inhibition of TNFα-induced NF-κB signaling; type: cell-based; conditions: THP-1 NF-κB Lucia reporter cells, 10 ng/mL TNFα, 16-18 h, secreted luciferase; read-out: THP-1 IC50
T3 sequence (P19438 30-455): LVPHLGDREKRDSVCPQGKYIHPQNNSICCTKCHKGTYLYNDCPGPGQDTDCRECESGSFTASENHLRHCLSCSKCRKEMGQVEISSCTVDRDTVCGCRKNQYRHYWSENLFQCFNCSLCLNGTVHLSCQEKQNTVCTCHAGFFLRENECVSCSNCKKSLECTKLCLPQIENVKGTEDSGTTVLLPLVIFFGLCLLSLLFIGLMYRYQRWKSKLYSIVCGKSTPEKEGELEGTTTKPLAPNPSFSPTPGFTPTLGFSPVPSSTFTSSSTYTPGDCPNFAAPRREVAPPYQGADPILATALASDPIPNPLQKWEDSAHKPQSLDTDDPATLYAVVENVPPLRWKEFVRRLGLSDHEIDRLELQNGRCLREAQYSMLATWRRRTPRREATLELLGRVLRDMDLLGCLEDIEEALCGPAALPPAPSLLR
How it was run: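 IC50 from a 4-parameter logistic fit of secreted luciferase luminescence (QUANTI-Luc), normalised to min/max controls. Reporter THP-1 cells were exposed to peptides for 1 h at 37 °C before 10 ng/mL TNFα (final) was added overnight (16–18 h).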

[4] = biotinylated human TNFR1 ECD on streptavidin chip, from kon and koff, read-out: SPR hTNFR1 KD
[5] = biotinylated human TNFR2 ECD on streptavidin chip, read-out: SPR hTNFR2 KD

SMILES: CCCC[C@@H]1NC(=O)[C@@H]2CC[C@@H](C2)NC(=O)[C@H]([C@@H](C)c2c[nH]c3c(OC)cccc23)NC(=O)CN(C)C(=O)[C@H](Cc2cccc(C(N)=O)c2)NC(=O)[C@H](Cc2ccc(C(=O)O)cc2)NC(=O)[C@](C)(CO)NC(=O)[C@H](Cc2c[nH]c3c(Cl)cccc23)NC(=O)[C@H](Cc2ccncc2)NC(=O)[C@H](CC(N)=O)NC(=O)[C@H](CCC(=O)O)N(C)C(=O)[C@H](Cc2c[nH]c3ccccc23)NC(=O)[C@@H]2CCCCN2C(=O)[C@H](Cc2ccncc2)NC1=O [SEQ ID NO. 221] (cyclo([4Pal][Pip]W[NMeE]N[4Pal][Trp(7-Cl)][αMeS][Phe(4-COOH)][Phe(3-CONH2)][Sar][Trp(βS-Me,7-OMe)][X1][Nle]))
- pKd [1, 4]: 9.85
- pKd [2, 5]: < 6.00
- pIC50 [3]: 9.00

SMILES: CCCC[C@@H]1NC(=O)[C@@H]2CC[C@@H](C2)NC(=O)[C@H]([C@@H](C)c2c[nH]c3c(OC)cccc23)NC(=O)CN(C)C(=O)[C@H](Cc2ccc(C(N)=O)cc2)NC(=O)[C@H](Cc2ccc(C(N)=O)cc2)NC(=O)[C@](C)(CO)NC(=O)[C@H](Cc2c[nH]c3c(C#N)cccc23)NC(=O)[C@H](Cc2ccc(C(=O)O)cc2)NC(=O)[C@H](CC(N)=O)NC(=O)[C@H]2C[C@H](O)CN2C(=O)[C@H](Cc2c[nH]c3ncccc23)NC(=O)[C@@H]2CC[C@@H](O)CN2C(=O)[C@H](Cc2ccncc2)NC1=O [SEQ ID NO. 254] (cyclo([4Pal][Pip(5R-OH)][Trp(7-aza)][dHyp]N[Phe(4-COOH)][Trp(7-CN)][αMeS][Phe(4-CONH2)][Phe(4-CONH2)][Sar][Trp(βS-Me,7-OMe)][X1][Nle]))
- pKd [1, 4]: 10.70
- pKd [2, 5]: < 6.00
- pIC50 [3]: 9.40

SMILES: CCCC[C@@H]1NC(=O)[C@@H]2CC[C@@H](C2)NC(=O)[C@H]([C@@H](C)c2c[nH]c3c(OC)cccc23)NC(=O)CN(C)C(=O)[C@H](Cc2ccc(CN)cc2)NC(=O)[C@H](Cc2ccc(C(=O)O)cc2)NC(=O)[C@](C)(CO)NC(=O)[C@H](Cc2c[nH]c3c(Cl)cccc23)NC(=O)[C@H](Cc2ccncc2)NC(=O)[C@H](CC(N)=O)NC(=O)[C@H](CCC(=O)O)N(C)C(=O)[C@H](Cc2c[nH]c3ccccc23)NC(=O)[C@@H]2CNCCN2C(=O)[C@H](Cc2ccncc2)NC1=O [SEQ ID NO. 269] (cyclo([4Pal][Trp(7-Cl)][αMeS][Phe(4-COOH)][Phe(4-CH2NH2)][Sar][Trp(βS-Me,7-OMe)][X1][Nle][4Pal][Pip(4-aza)]W[NMeE]N))
- pKd [1]: 10.00
- pKd [2]: < 6.00
- pIC50 [3]: 9.00

SMILES: CCCC[C@@H]1NC(=O)CSC[C@@H](C(N)=O)NC(=O)[C@H]([C@@H](C)c2c[nH]c3c(OC)cccc23)NC(=O)CN(C)C(=O)[C@H](Cc2ccc(O)cc2)NC(=O)[C@H](Cc2ccc(C(=O)O)cc2)NC(=O)[C@](C)(CO)NC(=O)[C@H](Cc2c[nH]c3c(Cl)cccc23)NC(=O)[C@H](Cc2ccncc2)NC(=O)[C@H](CC(N)=O)NC(=O)[C@H](CCC(=O)O)N(C)C(=O)[C@H](Cc2c[nH]c3ccccc23)NC(=O)[C@@H]2C[C@H](N)CCN2C(=O)[C@H](Cc2ccncc2)NC1=O [SEQ ID NO. 271] ({CH2CO}-[Nle][4Pal][X23]W[NMeE]N[4Pal][Trp(7-Cl)][αMeS][Phe(4-COOH)]Y[Sar][Trp(βS-Me,7-OMe)]C-NH2; thioether N-14)
- pKd [1]: 9.55
- pKd [2]: < 6.00
- pIC50 [3]: 8.57

SMILES: COc1cccc2c([C@H](C)[C@@H]3NC(=O)CN(C)C(=O)[C@H](Cc4ccc(O)cc4)NC(=O)[C@H](Cc4ccc(C(=O)O)cc4)NC(=O)[C@](C)(CO)NC(=O)[C@H](Cc4c[nH]c5c(Cl)cccc45)NC(=O)[C@H](Cc4ccncc4)NC(=O)[C@H](CC(N)=O)NC(=O)[C@H](CCC(=O)O)N(C)C(=O)[C@H](Cc4c[nH]c5ccccc45)NC(=O)[C@@H]4CNCCN4C(=O)[C@H](Cc4ccncc4)NC(=O)[C@H](CCC(C)(F)F)NC(=O)[C@@H]4CC[C@@H](C4)NC3=O)c[nH]c12 [SEQ ID NO. 275] (cyclo([4Pal][Trp(7-Cl)][αMeS][Phe(4-COOH)]Y[Sar][Trp(βS-Me,7-OMe)][X1][Nle(5,5-F2)][4Pal][Pip(4-aza)]W[NMeE]N))
- pKd [1]: 9.52
- pKd [2]: < 6.00
- pIC50 [3]: 8.85
